Laboratory results reported in ChEMBL document CHEMBL1201862, “PubChem BioAssay data set” (2004).
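48-hour exposure; five concentrations; linearly interpolated endpoints. At the GI50, growth is halved.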 Calls of active or inactive are those of the source. Rule as the data show it: active = GI50 up to about 1.1 µM and inactive = higher. Non-standard residues stand in square brackets, D forms with d. Residues, ends and D or L forms follow the SMILES beside them. *: point of attachment. Phe(4-NO2) = N[CH](Cc1ccc([N+](=O)[O-])cc1)C(=O)O; Boc = CC(C)(C)OC(=O)*

How the values were obtained:
Experiment in all cases: growth of human tumour cells (NCI), 48 h
OVCAR-3 = system: OVCAR-3
A549 = system: A549
HCT-15 = system: HCT-15
NCI-H460 = system: NCI-H460
SF-295 = system: SF-295
HCT-116 = system: HCT-116
RXF 393 = system: RXF 393
MCF7 = system: MCF7
CAKI-1 = system: CAKI-1
HT-29 = system: HT-29
HCC 2998 = system: HCC 2998
EKVX = system: EKVX
M14 = system: M14
NCI-H522 = system: NCI-H522
UACC-257 = system: UACC-257
A498 = system: A498
OVCAR-4 = system: OVCAR-4
SF-539 = system: SF-539
NCI-H23 = system: NCI-H23
SNB-19 = system: SNB-19

Structure (SMILES) | GI50 (OVCAR-3) | GI50 (A549) | GI50 (HCT-15) [µM] | GI50 (NCI-H460) | GI50 (SF-295) | GI50 (HCT-116) | GI50 (RXF 393) | GI50 (MCF7) | GI50 (CAKI-1) | GI50 (HT-29) | GI50 (HCC 2998) | GI50 (EKVX) | GI50 (M14) | GI50 (NCI-H522) | GI50 (UACC-257) | GI50 (A498) | GI50 (OVCAR-4) | GI50 (SF-539) | GI50 (NCI-H23) | GI50 (SNB-19)
Nc1c(C(=O)Nc2ccc([As](=O)(O)O)cc2)cnc2nnnn12 | > 100 µM (inactive) | > 100 µM (inactive) | > 100 | > 100 µM (inactive) | > 100 µM (inactive) | > 100 µM (inactive) | > 100 µM (inactive) | > 100 µM (inactive) | > 100 µM (inactive) | > 100 µM (inactive) | > 100 µM (inactive) | > 100 µM (inactive) | > 100 µM (inactive) | > 100 µM (inactive) | > 100 µM (inactive) | > 100 µM (inactive) | > 100 µM (inactive) | > 100 µM (inactive) | > 100 µM (inactive) | > 100 µM (inactive)
N#CCCN(CCC#N)CCN(CCN(CCC#N)CCC#N)CCN(CCC#N)CCC#N | > 100 µM (inactive) | > 100 µM (inactive) | > 100 | > 100 µM (inactive) | > 100 µM (inactive) | > 100 µM (inactive) | > 100 µM (inactive) | > 100 µM (inactive) | > 100 µM (inactive) | > 100 µM (inactive) | > 100 µM (inactive) | > 100 µM (inactive) | > 100 µM (inactive) | > 100 µM (inactive) | > 100 µM (inactive) | > 100 µM (inactive) | > 100 µM (inactive) | > 100 µM (inactive) | > 100 µM (inactive) | > 100 µM (inactive)
CCOC(=O)C1=CN/C(=C(/C)C(=O)OC)SC1C(=O)OCC (stereo not given) | > 100 µM (inactive) | > 100 µM (inactive) | > 100 | > 90.4 µM (inactive) | > 100 µM (inactive) | > 100 µM (inactive) | > 100 µM (inactive) | > 93.5 µM (inactive) | > 100 µM (inactive) | > 100 µM (inactive) | > 100 µM (inactive) | > 100 µM (inactive) | > 100 µM (inactive) | > 76.7 µM (inactive) | > 100 µM (inactive) | > 100 µM (inactive) | > 100 µM (inactive) | > 100 µM (inactive) | > 100 µM (inactive) | 98.2 µM (inactive)
COCCCNc1c2ccccc2nc2ccccc12 | 2.47 µM (inactive) | 2.92 µM (inactive) | 1.3 | 1.54 µM (inactive) | 3.61 µM (inactive) | 2.59 µM (inactive) | 3.35 µM (inactive) | 2.34 µM (inactive) | 1.39 µM (inactive) | 2.82 µM (inactive) | 1.56 µM (inactive) | 3.59 µM (inactive) | 2.01 µM (inactive) | 1.64 µM (inactive) | 2.42 µM (inactive) | 3.97 µM (inactive) | 2.64 µM (inactive) | 2.26 µM (inactive) | 2.92 µM (inactive) | 3.09 µM (inactive)
NC(=O)CCSC(CC(=O)c1ccc(Cl)cc1)c1ccc(Cl)cc1 (stereo not given) | 19.2 µM (inactive) | 29.9 µM (inactive) | 10.5 | 35.9 µM (inactive) | 25.2 µM (inactive) | 14.7 µM (inactive) | 17.9 µM (inactive) | 5.08 µM (inactive) | 12.4 µM (inactive) | 19.9 µM (inactive) | 18.2 µM (inactive) | 28.2 µM (inactive) | 27.2 µM (inactive) | 23.2 µM (inactive) | 27.7 µM (inactive) | 22.5 µM (inactive) | 16.8 µM (inactive) | 19.7 µM (inactive) | 32.4 µM (inactive) | 32.5 µM (inactive)
CCCCCCc1ccc(C(=O)NO)cc1 | 30.3 µM (inactive) | 33.8 µM (inactive) | 12.6 | 25 µM (inactive) | 40.6 µM (inactive) | 29.6 µM (inactive) | 41.2 µM (inactive) | 59.3 µM (inactive) | 28.1 µM (inactive) | 36 µM (inactive) | 65.2 µM (inactive) | 37.8 µM (inactive) | 35.1 µM (inactive) | 11.3 µM (inactive) | 44.7 µM (inactive) | 29.2 µM (inactive) | 20.4 µM (inactive) | 49.8 µM (inactive) | 28.3 µM (inactive) | 45.3 µM (inactive)
Nc1ncnc2c1nc(-c1ccccc1)n2C1OC(CO)C(O)C1O (stereo not given) | > 100 µM (inactive) | > 100 µM (inactive) | > 100 | > 100 µM (inactive) | > 100 µM (inactive) | > 100 µM (inactive) | > 100 µM (inactive) | > 100 µM (inactive) | > 100 µM (inactive) | > 100 µM (inactive) | > 100 µM (inactive) | > 100 µM (inactive) | > 100 µM (inactive) | > 100 µM (inactive) | > 100 µM (inactive) | > 100 µM (inactive) | > 100 µM (inactive) | > 100 µM (inactive) | > 100 µM (inactive) | > 100 µM (inactive)
COC(=O)CCC(NC(=O)OC(C)(C)C)C(=O)NC(Cc1ccc([N+](=O)[O-])cc1)C(=O)NC(CCC(=O)OC)C(=O)OC (stereo not given) (Boc-Glu(OMe)-[Phe(4-NO2)]-Glu(OMe)-OMe; configuration not given here) | > 100 µM (inactive) | > 100 µM (inactive) | > 100 | 60.3 µM (inactive) | > 100 µM (inactive) | > 100 µM (inactive) | > 100 µM (inactive) | > 100 µM (inactive) | > 100 µM (inactive) | 87.3 µM (inactive) | > 100 µM (inactive) | > 100 µM (inactive) | > 100 µM (inactive) | > 100 µM (inactive) | 11.3 µM (inactive) | > 100 µM (inactive) | > 100 µM (inactive) | 43.5 µM (inactive) | > 100 µM (inactive) | > 100 µM (inactive)
